“Also recorded” adds a separate entry of the source. Like-named read-outs stand apart in the source and are kept apart here.
What was measured:
[1] = system: STAM model of non-alcoholic steatohepatitis; format: in vivo; conditions: for Liver weight (mean ± SD) / Liver-to-body weight ratio (mean ± SD): n = 8
From the text: To prepare dosing solution, Compound A and B were weighed and suspended in Vehicle which was composed of 20% of Vehicle-A1 and 80% of Vehicle-A2. Vehicle-A1 was composed of 0.5% (w/v) Carboxymethyl cellulose (CMC) 400-800 centipoises in water for injection+2.5% (w/v) Tween 80. Vehicle-A2 was composed of 0.5% (w/v) Carboxymethyl cellulose (CMC) 400-800 centipoises in water for injection. Telmisartan (Micardis®) was purchased from Boehringer Ingelheim GmbH (Germany) and dissolved in pure water.
(§1) NASH was induced in 48 male mice by a single subcutaneous injection of 200 μg streptozotocin (STZ, Sigma-Aldrich, USA) solution 2 days after birth and feeding with high fat diet (HFD, 57 kcal % fat, Cat #HFD32, CLEA Japan, Inc., Japan) after 4 weeks of age.
Compound A and B, and Telmisartan were administered orally in a volume of 10 mL/kg.
(§2) Compound A was administered at 3 dose levels of 10, 20 and 40 mg/kg once daily from 6 to 9 weeks of age. Compound B was administered at a dose of 40 mg/kg once daily from 6 to 9 weeks of age. Telmisartan was administered at a dose of 10 mg/kg once daily from 6 to 9 weeks of age.
C57BL/6 mice (14-day-pregnant female) were obtained from Japan SLC, Inc. (Japan). All animals used in the study were housed and cared for in accordance with the Japanese Pharmacological Society Guidelines for Animal Use.
Group 1: Vehicle Eight NASH mice were orally administered vehicle [20% of Vehicle-A1 and 80% of Vehicle-A2] in a volume of 10 mL/kg once daily from 6 to 9 weeks of age.
Eight NASH mice were orally administered vehicle supplemented with Compound A at a dose of 10 mg/kg once daily from 6 to 9 weeks of age.
Eight NASH mice were orally administered vehicle supplemented with Compound A at a dose of 20 mg/kg once daily from 6 to 9 weeks of age.
Eight NASH mice were orally administered vehicle supplemented with Compound A at a dose of 40 mg/kg once daily from 6 to 9 weeks of age.
Eight NASH mice were orally administered vehicle supplemented with Compound B at a dose of 40 mg/kg once daily from 6 to 9 weeks of age.
Eight NASH mice were orally administered pure water supplemented with Telmisartan at a dose of 10 mg/kg once daily from 6 to 9 weeks of age.
The viability, clinical signs and behavior were monitored daily. Body weight was recorded before the treatment. […] The animals were sacrificed at 9 weeks of age by exsanguination through direct cardiac puncture under isoflurane anesthesia (Pfizer Inc.).

[2] = system: STAM model of non-alcoholic steatohepatitis; experiment: STAM model of NASH: plasma ALT; format: in vivo, mice; conditions: for Plasma ALT (mean ± SD): n = 8
Protocol: NASH was induced in 48 male mice by a single subcutaneous injection of 200 μg streptozotocin (STZ, Sigma-Aldrich, USA) solution 2 days after birth and feeding with high fat diet (HFD, 57 kcal % fat, Cat #HFD32, CLEA Japan, Inc., Japan) after 4 weeks of age. Compound A was administered at 3 dose levels of 10, 20 and 40 mg/kg once daily from 6 to 9 weeks of age. Compound B was administered at a dose of 40 mg/kg once daily from 6 to 9 weeks of age. Telmisartan was administered at a dose of 10 mg/kg once daily from 6 to 9 weeks of age. For plasma biochemistry, non-fasting blood was collected in polypropylene tubes with anticoagulant (Novo-Heparin, Mochida Pharmaceutical Co. Ltd., Japan) and centrifuged at 1,000×g for 15 minutes at 4° C. The supernatant was collected and stored at −80° C. until use. Plasma ALT was measured by FUJI DRI-CHEM 7000 (Fujifilm, Japan).

[3] = system: STAM model of non-alcoholic steatohepatitis; experiment: STAM model of NASH: liver triglyceride content; format: in vivo, mice; conditions: n = 8
Protocol: as §1, §2
Liver total lipid-extracts were obtained by Folch's method (Folch J. et al., J. Biol. Chem. 1957; 226: 497). Liver samples were homogenized in chloroform-methanol (2:1, v/v) and incubated overnight at room temperature. After washing with chloroform-methanol-water (8:4:3, v/v/v), the extracts were evaporated to dryness, and dissolved in isopropanol. Liver triglyceride content was measured by Triglyceride E-test (FUJIFILM Wako Pure Chemical Corporation, Japan).

[4] = 10 mg/kg PO QD (Compound A low, Telmisartan groups)
[5] = 10 mg/kg PO QD, 6-9 wks of age (Compound A low, Telmisartan groups)
[6] = 20 mg/kg PO QD (Compound A middle group)
[7] = 20 mg/kg PO QD, 6-9 wks of age (Compound A middle group)
[8] = 40 mg/kg PO QD (Compound A high, Compound B groups)
[9] = 40 mg/kg PO QD, 6-9 wks of age (Compound A high, Compound B groups)

SMILES: FC(F)(F)Oc1ccc(Nc2ccc3cccc(Cl)c3n2)cc1 [Compound A, 8-Chloro-N-(4-(trifluoromethoxy)phenyl)quinolin-2-amine]
- Mean liver weight compared with the Vehicle group [1, 4]: significant increase
- Mean liver-to-body weight ratio compared with the Vehicle group [1, 4]: tended to increase
- Liver weight (mean ± SD) [1, 5]: 1662 ± 254 mg
- Liver-to-body weight ratio (mean ± SD) [1, 5]: 8.4 ± 1.8%
- Mean liver weight compared with the Vehicle group [1, 6]: no significant difference
- Mean liver-to-body weight ratio compared with the Vehicle group [1, 6]: tended to increase
- Liver weight (mean ± SD) [1, 7]: 1500 ± 77 mg
- Liver-to-body weight ratio (mean ± SD) [1, 7]: 7.6 ± 0.4%
- Mean liver weight compared with the Vehicle group [1, 8]: tended to increase
- Mean liver-to-body weight ratio compared with the Vehicle group [1, 8]: tended to increase
- Liver weight (mean ± SD) [1, 9]: 1654 ± 145 mg
- Liver-to-body weight ratio (mean ± SD) [1, 9]: 8.5 ± 1.1%
- Plasma ALT level compared with the Vehicle group [2, 4]: tended to increase; also recorded: increasing trend
- Plasma ALT (mean ± SD) [2, 5]: 75 ± 31 U/L
- Plasma ALT level compared with the Vehicle group [2, 6]: tended to increase; also recorded: increasing trend
- Plasma ALT (mean ± SD) [2, 7]: 91 ± 15 U/L
- Plasma ALT level compared with the Vehicle group [2, 8]: significant increase
- Plasma ALT (mean ± SD) [2, 9]: 133 ± 100 U/L
- Liver triglyceride (mean ± SD) [3, 5]: 64.9 ± 27.6 mg/g liver
- Liver triglyceride (mean ± SD) [3, 7]: 63.1 ± 21.2 mg/g liver
- Liver triglyceride (mean ± SD) [3, 9]: 66.6 ± 25.6 mg/g liver
